Measured values: patent EP3300715A1, “USE OF DIALKYLCARBONATES OF BRANCHED ALCOHOLS AS DISPERSION AGET” (BASF SE, priority 2016, dated 2018)

Test: Pigment dispersion test: medium added dropwise to 10 g pigment until a paste forms; maximum % pigment in the medium
Assay type: physicochemical
Details: medium added dropwise to 10 g pigment (Eisenoxid, Titanoxid) until paste, no excess medium; compared with other media; shown in figure
Excerpt: Es hat sich überraschend gezeigt, dass die erfindungsgemäß verwendeten Dialkylcarbonate gegenüber anderen Medien hervorragende Dispersionen mit Feststoffen bilden.
Das Experiment wurde wie folgt durchgeführt. Das Medium wurde tropfenweise zu 10 g Pigment (grau = Eisenoxid, dunkelgrau = Titanoxid), bis sich eine Paste gebildet hatte (kein Medium im Überschuss). Die folgende Rechnung entspricht der maximalen Menge Pigment in prozent, die in das jeweilige Medium gegeben werden kann: % Pigment = m(Pigment)/m(Pigment) + m(Medium) × 100 [formula]

SMILES: CCCCCC(CCC)COC(=O)OCC(CCC)CCCCC (stereo not shown) [Di-(2-Propyl-1-heptyl)carbonat]
- Pigmentkonzentrationen (% Pigment, maximale Menge Pigment im Medium): höchsten Pigmentkonzentrationen
